The values that follow come from paper PMC9730296, “High-Throughput Steady-State Enzyme Kinetics Measured in a Parallel Droplet Generation and Absorbance Detection Platform” (Analytical Chemistry, 2022).

In this assay the test system is T1, SN243.
T1 construct: purified
The assay is described as follows: pNP release, absorbance […] nm in microfluidic droplets. The class given is biochemical, metagenome: source not printed. Conditions: 100 mM Tris pH 8.0, 150 mM NaCl, room temperature, substrate in DMSO.

Take `O=C(O)C1OC(Oc2ccc([N+](=O)[O-])cc2)C(O)C(O)C1O` (stereo not drawn) [pNP-β-GalA]: where the note is “mean of 12 datasets”, the Km stood at 1.6 ± 0.3 mM.
Same read-out and setting: the result for `O=[N+]([O-])c1ccc(O[C@@H]2O[C@H](CO)[C@H](O)[C@H](O)[C@H]2O)cc1` [pNP-β-Gal] reads 75.8 ± 7.7 mM.
For the compound `O=C(O)[C@H]1O[C@@H](Oc2ccc([N+](=O)[O-])cc2)[C@H](O)[C@@H](O)[C@@H]1O` [pNP-β-GlcA], under “detection points 1-4 only”, the Michaelis constant (Km) amounted to 0.015 mM.
On to `O=[N+]([O-])c1ccc(O[C@@H]2O[C@H](CO)[C@@H](O)[C@H](O)[C@H]2O)cc1` [pNP-β-Glc], for which the Km (mean of 12 datasets) was 36.8 ± 9 mM.
Same read-out and setting: as for `O=[N+]([O-])c1ccc(O[C@@H]2OC[C@@H](O)[C@H](O)[C@H]2O)cc1` [pNP-β-Xyl], the figure is 21.9 ± 1.6 mM.
